# Experimental data as given in patent publication US20150104868A1, “Methods of Maintaining and Improving Biological Cell Function and Activity” (GARGILL INCORPORATED, priority 2012, published 2015).
# Columns and labels:
# [1] = tested on: erythrocytes; details: in vitro model of radical-induced hemolysis; cited from earlier work
# [2] = tested on: HUVEC cells; details: ERT by itself, non-diabetic conditions; cited from earlier work
# [3] = tested on: HUVEC cells; test: Eicosanoids in HUVEC pellets and supernatants; format: cell-based, human
# Procedure: Another parameter evaluated in the targeted assays included the study of 23 eicosanoids in a comparison of HG versus HGERT conditions.
# In studying the supernatants, 14,15-dihydroxy-5Z,8Z,11Z-eicosatrienoate (14,15-DiHETrE), produced from arachidonic acid via Cyp 2C and 2J to form epoxyeicosatrienoic acids (EETs), then converted to DiHETrE via sEH, decreased from 0.0085 to 0.0040 nM (p<0.05). This decrease in 14,15-DiHETrE is consistent with high glucose suppression of sEH, and should result in increased EETs, which would produce vasodilation. EETs were not, however, observed to be increased.
# [4] = in vitro; cited from earlier work
structure (smiles),measurement,setting,value
"OC[C@@H](O)[C@@H](O)CO [ERT, meso-1,2,3,4-tetrahydroxybutane]","onset of oxidative damage, ABTS-induced hemolysis",[1],able to delay the onset of oxidative damage
same,"viability, oxidative damage, SOD activity, nitric oxide production, adhesion molecule production, transcriptome",[2],did not show changes
same,"14,15-DiHETrE in supernatants",[3]; HG vs HGERT,4 pM
same,TXB2,[3]; HG vs HGERT,1.20
same,12-HETE in pellets,[3]; HGERT vs HG,decreasing 12-HETE levels
same,hydroxyl radical scavenging,[4],effective in scavenging hydroxyl radicals
same,superoxide or peroxynitrite scavenging activity,[4],does not possess any superoxide or peroxynitrite scavenging activity
